Experimental data: patent publication US20260158014A1, “METHODS OF ADMINISTERING VOXELOTOR” (Global Blood Therapeutics, Inc., priority 2021, published 2026)

Key:
rat = experiment: Rat micronucleus assay; settings: in vivo
patients treated = experiment: Hypersensitivity reactions in treated patients; settings: human, in vivo
Hb = experiment: Pharmacodynamics: Hb oxygen affinity (p50) and clinical measures of hemolysis; assay type: in vivo
QT interval = experiment: Cardiac electrophysiology (QT interval); assay type: in vivo; settings: plasma concentrations approximately 2-fold above therapeutic concentrations
patients with SCD [1] = experiment: HOPE Phase 3 trial: efficacy; assay type: in vivo, human
Protocol: The efficacy and safety of OXBRYTA in SCD was evaluated in HOPE, a Phase 3 randomized, double-blind, placebo-controlled, multicenter trial [NCT 03036813]. In this study, 274 patients were randomized to daily oral administration of OXBRYTA 1,500 mg (N=90), OXBRYTA 900 mg (N=92), or placebo (N=92). Patients were included if they had from 1 to 10 vaso-occlusive crisis (VOC) events within 12 months prior to enrollment and baseline hemoglobin (Hb) ≥5.5 to ≤10.5 g/dL. Eligible patients on stable doses of hydroxyurea for at least 90 days were allowed to continue hydroxyurea therapy throughout the study. Randomization was stratified by patients already receiving hydroxyurea (yes, no), geographic region (North America, Europe, Other), and age (12 to <17 years, 18 to 65 years). The trial excluded patients who received red blood cell (RBC) transfusions within 60 days and erythropoietin within 28 days of enrollment, had renal insufficiency, uncontrolled liver disease, were pregnant, or lactating.
The majority of patients had HbSS or HbS/beta^0-thalassemia genotype (90%) and were receiving background hydroxyurea therapy (65%). The median age was 24 years (range: 12 to 64 years); 46 (17%) patients were 12 to <17 years. Median baseline Hb was 8.5 g/dL (5.9 to 10.8 g/dL). One hundred and fifteen (42%) had 1 VOC event and 159 (58%) had 2 to 10 events within 12 months prior to enrollment. In the OXBRYTA 1,500 mg group, 63 (70%) patients completed the study through Week 72.
Efficacy was based on Hb response rate defined as a Hb increase of >1 g/dL from baseline to Week 24 in patients treated with OXBRYTA 1,500 mg versus placebo. […] No outlier subgroups were observed. The distribution of Hb change from baseline for individual patients completing 24 weeks of treatment with OXBRYTA 1,500 mg or placebo is depicted in FIG. 2.
Additional efficacy evaluation included change in Hb and percent change in indirect bilirubin and percent reticulocyte count from baseline to Week 24 (Table 15).

OAT3 = OAT3 (Homo sapiens, UniProt Q8TCC7); experiment: In vitro transporter study; assay type: in vitro ADME
[2] = Excretion of radiolabeled voxelotor; assay type: in vivo
BSEP = BSEP (Homo sapiens, UniProt O95342); experiment: In vitro transporter study; assay type: in vitro ADME
hemoglobin S (HbS) = hemoglobin S (HbS) (Homo sapiens, UniProt P68871+P69905, E7V); experiment: HbS binding and polymerization inhibition
rats = experiment: Fertility and early embryonic development study; assay type: in vivo, rat
Protocol: In a fertility and early embryonic development study, voxelotor was administered orally to rats at 15, 50, and 250 mg/kg/day. Males were dosed 28 days prior to mating through cohabitation and females were dosed 14 days prior to mating through gestation Day 7.

[3] = Effect of food (high-fat, high-calorie meal); assay type: in vivo; settings: high-calorie meal vs fasted
patients with SCD [4] = experiment: HOPE trial: safety; assay type: in vivo, human
Protocol: The safety of OXBRYTA was evaluated in the HOPE trial based on data from 88 patients with SCD who received OXBRYTA 1,500 mg and 91 patients who received placebo orally once daily [see Clinical Studies (14.1)]. Seventy-four patients received OXBRYTA 1,500 mg once daily for ≥24 weeks, 65 patients for ≥48 weeks, and 63 patients completed the 72-week treatment period.
In patients who received OXBRYTA 1,500 mg once daily, the median age was 24 years (range:12 to 59 years); 65% female; 66% Black or African American and 23% Arab/Middle Eastern; and 65% receiving hydroxyurea at baseline.

OATP1B3 = OATP1B3 (Homo sapiens, UniProt Q9NPD5); experiment: In vitro transporter study; assay type: in vitro ADME
[5] = Tablet for oral suspension versus oral tablet exposure in healthy subjects; assay type: in vivo, human
[6] = tested on: CYP3A4, CYP3A5, CYP2B6, CYP2C19, CYP2C9, UGT1A1, and UGT1A9; experiment: Metabolism, in vitro and in vivo studies; assay type: in vitro ADME
[7] = Physicochemical description (solubility, hygroscopicity); settings: crystalline Form II free base
CYP3A4 = CYP3A4 (Homo sapiens, UniProt P08684); experiment: Clinical DDI: strong CYP3A4 inhibitor itraconazole on voxelotor; assay type: in vivo; parameters: host or cells: Simcyp PBPK simulation; settings: healthy subjects
RasH2 transgenic mice = experiment: 26-week carcinogenicity study; assay type: in vivo, mouse; settings: 26 weeks; oral 30, 150, or 500 mg/kg/day
[8] = Voxelotor in milk of lactating rats; assay type: in vivo, rat

Question: For CC(C)n1nccc1-c1ncccc1COc1cccc(O)c1C=O [voxelotor, 2-hydroxy-6-((2-(1-isopropyl-1H-pyrazol-5-yl)pyridin-3-yl)methoxy)benzaldehyde], which “genotoxicity, rat micronucleus assay” value (rat) is on record?
Answer: Its value is “not genotoxic”.

Question: What about the “serious hypersensitivity reactions, patients treated” value (patients treated) of the same molecule?
Answer: The value was < 1%.

Question: What about the “clinical measures of hemolysis (indirect bilirubin and % reticulocytes)” value (Hb; in vivo) of the same molecule?
Answer: The value was “dose-dependent reduction”.

Question: What about the “Hb oxygen affinity as determined by change in p50” value (Hb; linearly correlated with voxelotor exposure) of the same molecule?
Answer: Its value is “dose-dependent increase”.

Question: What about the QT interval prolongation (QT interval) of the same molecule?
Answer: Its QT interval prolongation is “does not prolong QT interval to any clinically relevant extent”.

Question: And the “adjusted mean change from baseline to Week 24 in hemoglobin” value (patients with SCD [1]; 1,500 mg QD, N=90)?
Answer: Its value is 1.1 g/dL.

Question: What about the “adjusted mean percent change from baseline to Week 24 in indirect bilirubin” value (patients with SCD [1]; 1,500 mg QD, N=90) of the same molecule?
Answer: The value was −29.1%.

Question: What about the “adjusted mean percent change from baseline to Week 24 in percent reticulocyte count” value (patients with SCD [1]; 1,500 mg QD, N=90) of the same molecule?
Answer: The value was −18.0%.

Question: What about the “Hb response rate (Hb increase >1 g/dL from baseline to Week 24)” value (patients with SCD [1]; 1,500 mg once daily, 46/90, adults and pediatric patients 12 years and older) of the same molecule?
Answer: The value was 51%.

Question: And the OAT3 inhibition (OAT3)?
Answer: Its OAT3 inhibition is “not an inhibitor”.

Question: And the “dose and metabolites excreted in urine” value [2]?
Answer: Its value is 35.5%.

Question: And the “dose and metabolites excreted into feces” value [2]?
Answer: The value was “approximately 62.6%”.

Question: And the “dose excreted unchanged in feces” value [2]?
Answer: Its value is 33.3%.

Question: What about the “dose excreted unchanged in urine” value [2] of the same molecule?
Answer: Its value is 0.08%.

Question: And the BSEP inhibition (BSEP)?
Answer: Its BSEP inhibition is “not an inhibitor”.

Question: And the “substrate of BSEP” value (BSEP)?
Answer: The value was “not a substrate”.

Question: And the HbS polymerization (hemoglobin S (HbS))?
Answer: Its HbS polymerization is “dose-dependent inhibition”.

Question: What about the sperm morphology (rats; 250 mg/kg/day) of the same molecule?
Answer: Its sperm morphology is “changes in sperm morphology”.

Question: What about the sperm motility (rats; 250 mg/kg/day) of the same molecule?
Answer: The sperm motility was “decreased”.

Question: And the “fertility or reproductive function” value (rats; oral 15, 50, 250 mg/kg/day)?
Answer: The value was “no effect on fertility or reproductive function”.

Question: What about the “exposure at 250 mg/kg/day relative to human exposure at 1,500 mg/day” value (rats; rat, in vivo) of the same molecule?
Answer: The value was “approximately 5 times”.

Question: What about the “increase in AUC with food, plasma” value [3] of the same molecule?
Answer: The value was 42%.

Question: What about the “increase in AUC with food, whole blood” value [3] of the same molecule?
Answer: Its value is 42%.

Question: And the “increase in Cmax with food, plasma” value [3]?
Answer: Its value is 95%.

Question: What about the “increase in Cmax with food, whole blood” value [3] of the same molecule?
Answer: The value was 45%.

Question: What about the “serious adverse reactions, patients” value (patients with SCD [4]; 1,500 mg once daily, 3/88) of the same molecule?
Answer: The value was 3%.

Question: And the “permanent discontinuation due to an adverse reaction (Grades 1-4), patients” value (patients with SCD [4]; 1,500 mg once daily, 4/88)?
Answer: The value was 5%.

Question: And the “Adverse reaction: Abdominal Pain” value (patients with SCD [4]; 1,500 mg, N=88)?
Answer: Its value is 23%.

Question: And the “Adverse reaction: Diarrhea” value (patients with SCD [4]; 1,500 mg, N=88)?
Answer: Its value is 23%.

Question: What about the “Adverse reaction: Headache” value (patients with SCD [4]; 1,500 mg, N=88) of the same molecule?
Answer: The value was 32%.

Question: What about the “Adverse reaction: Nausea” value (patients with SCD [4]; 1,500 mg, N=88) of the same molecule?
Answer: The value was 19%.

Question: What about the “Adverse reaction: Pyrexia” value (patients with SCD [4]; 1,500 mg, N=88) of the same molecule?
Answer: The value was 15%.

Question: And the “Adverse reaction: Rash” value (patients with SCD [4]; 1,500 mg, N=88)?
Answer: Its value is 15%.

Question: What about the “dosage modifications (dose reduction or dosing interruption) due to an adverse reaction, patients” value (patients with SCD [4]; 42/88) of the same molecule?
Answer: Its value is 48%.

Question: What about the OATP1B3 inhibition (OATP1B3) of the same molecule?
Answer: Its OATP1B3 inhibition is “not an inhibitor”.

Question: And the “substrate of OATP1B3” value (OATP1B3)?
Answer: The value was “not a substrate”.

Question: What about the “exposures, tablet for oral suspension dispersed in water vs oral tablet swallowed whole” value [5] of the same molecule?
Answer: Its value is “comparable”.

Question: What about the enzymes mediating metabolism [6] of the same molecule?
Answer: Its enzymes mediating metabolism is “CYP3A4, CYP3A5, CYP2B6, CYP2C19, CYP2C9, UGT1A1, and UGT1A9”.

Question: And the hygroscopicity [7]?
Answer: Its hygroscopicity is “non-hygroscopic”.

Question: What about the “solubility in common organic solvents such as acetone and toluene” value [7] of the same molecule?
Answer: The value was “highly soluble”.

Question: What about the solubility in water [7] of the same molecule?
Answer: Its solubility in water is “insoluble in water”.

Question: And the “increase of voxelotor AUC with itraconazole” value (CYP3A4)?
Answer: Its value is 11%.

Question: What about the carcinogenicity (RasH2 transgenic mice) of the same molecule?
Answer: The carcinogenicity was “not carcinogenic”.

Question: And the presence in milk ([8]; lactating rats)?
Answer: Its presence in milk is “detected in milk”.

Question: And the “plasma concentrations relative to concentration in milk” value ([8]; rats)?
Answer: The value was “higher”.
